Reference: patent US8802597B2, “Herbicidal pyrimidines” (E I du Pont de Nemours and Company, priority 2003, dated 2014)

Columns and labels:
[1] = test system: green foxtail (Setaria viridis); assay: Test C postemergence; assay type: in vivo; settings: for Plant response rating, Foxtail, Green: scale 0 to 100; for pest or weed control at 125 g/ha / pest or weed control at 62 g/ha: Setaria viridis, post-emergence, scale 0 to 100 (0 no effect, 100 complete control), read-out: Foxtail, Green plant response rating; for pest or weed control at 125 g/ha: 125 g ai/ha
Procedure, shortened: (§1)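 Injury scored visually 12–14 days after application on 0–100 scale (100 = complete control), relative to controls. Compounds, formulated with surfactant in non-phytotoxic solvent, applied to soil at planting (pre) or to 1- to 4-leaf plants 2–18 cm tall (post) in greenhouse.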

[2] = test system: wild oat (Avena fatua); assay: Test C postemergence; assay type: in vivo; settings: for Plant response rating, Oat, Wild: scale 0 to 100; for pest or weed control at 125 g/ha / pest or weed control at 62 g/ha: Avena fatua, post-emergence, scale 0 to 100 (0 no effect, 100 complete control), read-out: Oat, Wild plant response rating; for pest or weed control at 125 g/ha: 125 g ai/ha
Procedure, shortened: as §1

[3] = test system: downy brome (Bromus tectorum); assay: Test C postemergence; assay type: in vivo; settings: for Plant response rating, Bromegrass, Downy: scale 0 to 100
Procedure, shortened: as §1

[4] = test system: blackgrass (Alopecurus myosuroides); assay: Test C postemergence; assay type: in vivo; settings: for Plant response rating, Blackgrass: scale 0 to 100
Procedure, shortened: as §1

[5] = test system: windgrass (Apera spica-venti); assay: Test C postemergence; assay type: in vivo; settings: for Plant response rating, Windgrass: scale 0 to 100; for pest or weed control at 125 g/ha / pest or weed control at 62 g/ha: Apera spica-venti, post-emergence, scale 0 to 100 (0 no effect, 100 complete control), read-out: Windgrass plant response rating; for pest or weed control at 125 g/ha: 125 g ai/ha
Procedure, shortened: as §1

[6] = test system: wheat (Triticum aestivum); assay: Test C postemergence; assay type: in vivo; settings: for Plant response rating, Wheat: scale 0 to 100; for plant injury at 125 g/ha / plant injury at 62 g/ha: Triticum aestivum, post-emergence, scale 0 to 100 (0 no effect, 100 complete control), read-out: Wheat plant response rating; for plant injury at 125 g/ha: 125 g ai/ha
Procedure, shortened: as §1

[7] = test system: canarygrass (Phalaris minor); assay: Test C postemergence; assay type: in vivo; settings: for Plant response rating, Canarygrass: scale 0 to 100
Procedure, shortened: as §1

[8] = test system: Italian ryegrass (Lolium multiflorum); assay: Test C postemergence; assay type: in vivo; settings: for Plant response rating, Ryegrass, Italian: scale 0 to 100; for pest or weed control at 125 g/ha / pest or weed control at 62 g/ha: Lolium multiflorum, post-emergence, scale 0 to 100 (0 no effect, 100 complete control), read-out: Ryegrass, Italian plant response rating; for pest or weed control at 125 g/ha: 125 g ai/ha
Procedure, shortened: as §1

[9] = Bromus tectorum, post-emergence, 62 g ai/ha, scale 0 to 100 (0 no effect, 100 complete control), read-out: Bromegrass, Downy plant response rating
[10] = Alopecurus myosuroides, post-emergence, 62 g ai/ha, scale 0 to 100 (0 no effect, 100 complete control), read-out: Blackgrass plant response rating
[11] = Phalaris minor, post-emergence, 62 g ai/ha, scale 0 to 100 (0 no effect, 100 complete control), read-out: Canarygrass plant response rating

| Compound | melting point [°C] | Plant response rating (scale of 0 to 100), Foxtail, Green ([1]; 31 g ai/ha) | Plant response rating, Foxtail, Green ([1]; 250 g ai/ha) | pest or weed control at 125 g/ha [1] [%] | Plant response rating (scale of 0 to 100), Oat, Wild ([2]; 31 g ai/ha) | Plant response rating, Oat, Wild ([2]; 250 g ai/ha) | pest or weed control at 125 g/ha [2] [%] | Plant response rating (scale of 0 to 100), Bromegrass, Downy ([3]; 31 g ai/ha) | Plant response rating, Bromegrass, Downy ([3]; 250 g ai/ha) | Plant response rating (scale of 0 to 100), Blackgrass ([4]; 31 g ai/ha) | Plant response rating, Blackgrass ([4]; 250 g ai/ha) | Plant response rating (scale of 0 to 100), Windgrass ([5]; 31 g ai/ha) | Plant response rating, Windgrass ([5]; 250 g ai/ha) | pest or weed control at 125 g/ha [5] [%] | Plant response rating (scale of 0 to 100), Wheat ([6]; 31 g ai/ha) | Plant response rating, Wheat ([6]; 250 g ai/ha) | plant injury at 125 g/ha [6] [%] | Plant response rating, Canarygrass ([7]; 250 g ai/ha) | Plant response rating, Ryegrass, Italian ([8]; 250 g ai/ha) | pest or weed control at 125 g/ha [8] [%] | also measured |
| --- | --- | --- | --- | --- | --- | --- | --- | --- | --- | --- | --- | --- | --- | --- | --- | --- | --- | --- | --- | --- | --- |
| Nc1nc(C2CC2)nc(C(=O)OCc2ccccc2)c1Cl [Compound 78, phenylmethyl 6-amino-5-chloro-2-cyclopropyl-4-pyrimidinecarboxylate] | 126 to 128 | 25 | 75 | 70 | 5 | 60 | 60 | 5 | 55 | 0 | 50 | 5 | 40 | 30 | 20 | 55 | 30 | 0 | 25 | 20 | Plant response rating (scale of 0 to 100), Foxtail, Green ([1]; 62 g ai/ha): 40; Plant response rating (scale of 0 to 100), Oat, Wild ([2]; 62 g ai/ha): 10; Plant response rating (scale of 0 to 100), Bromegrass, Downy ([3]; 62 g ai/ha): 10; pest or weed control at 125 g/ha ([3]; Bromus tectorum, post-emergence, 125 g ai/ha, scale 0 to 100 (0 no effect, 100 complete control), read-out: Bromegrass, Downy plant response rating): 15%; Plant response rating (scale of 0 to 100), Blackgrass ([4]; 62 g ai/ha): 5; pest or weed control at 125 g/ha ([4]; Alopecurus myosuroides, post-emergence, 125 g ai/ha, scale 0 to 100 (0 no effect, 100 complete control), read-out: Blackgrass plant response rating): 5%; Plant response rating (scale of 0 to 100), Windgrass ([5]; 62 g ai/ha): 30; Plant response rating (scale of 0 to 100), Wheat ([6]; 62 g ai/ha): 20; Plant response rating (scale of 0 to 100), Canarygrass ([7]; 31 g ai/ha): 0; Plant response rating (scale of 0 to 100), Canarygrass ([7]; 62 g ai/ha): 0; pest or weed control at 125 g/ha ([7]; Phalaris minor, post-emergence, 125 g ai/ha, scale 0 to 100 (0 no effect, 100 complete control), read-out: Canarygrass plant response rating): 0%; Plant response rating (scale of 0 to 100), Ryegrass, Italian ([8]; 31 g ai/ha): 0; Plant response rating (scale of 0 to 100), Ryegrass, Italian ([8]; 62 g ai/ha): 10 |
| COC(=O)c1nc(C2CC2)nc(N)c1Br [Compound 2, methyl 6-amino-5-bromo-2-cyclopropyl-4-pyrimidinecarboxylate] | 148 to 150 | 55 | 70 | 65 | 20 | 60 | 55 | 20 | 60 | 60 | 75 | 65 | 70 | 70 | 20 | 65 | 65 | 40 | 60 | 60 | pest or weed control at 62 g/ha ([1]; 62 g ai/ha): 55%; pest or weed control at 62 g/ha ([2]; 62 g ai/ha): 55%; Plant response rating, Bromegrass, Downy ([3]; 125 g ai/ha): 45; pest or weed control at 62 g/ha [3, 9]: 35%; Plant response rating, Blackgrass ([4]; 125 g ai/ha): 70; pest or weed control at 62 g/ha [4, 10]: 65%; pest or weed control at 62 g/ha ([5]; 62 g ai/ha): 65%; plant injury at 62 g/ha ([6]; 62 g ai/ha): 60%; Plant response rating (scale of 0 to 100), Canarygrass ([7]; 31 g ai/ha): 30; Plant response rating, Canarygrass ([7]; 125 g ai/ha): 40; pest or weed control at 62 g/ha [7, 11]: 40%; Plant response rating (scale of 0 to 100), Ryegrass, Italian ([8]; 31 g ai/ha): 35; pest or weed control at 62 g/ha ([8]; 62 g ai/ha): 45% |
| CCOC(=O)c1nc(C2CC2)nc(N)c1Cl [Compound 4, ethyl 6-amino-5-chloro-2-cyclopropyl-4-pyrimidinecarboxylate] | 87 to 89 |  | 70 | 70 |  | 70 | 65 |  | 65 |  | 70 |  | 70 | 65 |  | 65 | 60 | 60 | 65 | 60 | Plant response rating, Foxtail, Green ([1]; 500 g ai/ha): 75; pest or weed control at 62 g/ha ([1]; 62 g ai/ha): 65%; Plant response rating, Oat, Wild ([2]; 500 g ai/ha): 70; pest or weed control at 62 g/ha ([2]; 62 g ai/ha): 60%; Plant response rating, Bromegrass, Downy ([3]; 125 g ai/ha): 60; Plant response rating, Bromegrass, Downy ([3]; 500 g ai/ha): 70; pest or weed control at 62 g/ha [3, 9]: 45%; Plant response rating, Blackgrass ([4]; 125 g ai/ha): 65; Plant response rating, Blackgrass ([4]; 500 g ai/ha): 70; pest or weed control at 62 g/ha [4, 10]: 65%; Plant response rating, Windgrass ([5]; 500 g ai/ha): 75; pest or weed control at 62 g/ha ([5]; 62 g ai/ha): 60%; Plant response rating, Wheat ([6]; 500 g ai/ha): 65; plant injury at 62 g/ha ([6]; 62 g ai/ha): 50%; Plant response rating, Canarygrass ([7]; 125 g ai/ha): 45; Plant response rating, Canarygrass ([7]; 500 g ai/ha): 60; pest or weed control at 62 g/ha [7, 11]: 35%; Plant response rating, Ryegrass, Italian ([8]; 500 g ai/ha): 65; pest or weed control at 62 g/ha ([8]; 62 g ai/ha): 45% |
| COC(=O)c1nc(C(C)C)nc(N)c1Br [Compound 3] | 107 to 109 | 20 | 35 | 35 | 30 | 40 | 40 | 20 | 20 | 0 | 0 | 10 | 30 | 30 | 0 | 10 | 0 | 10 | 35 | 35 | pest or weed control at 62 g/ha ([1]; 62 g ai/ha): 30%; pest or weed control at 62 g/ha ([2]; 62 g ai/ha): 30%; Plant response rating, Bromegrass, Downy ([3]; 125 g ai/ha): 20; pest or weed control at 62 g/ha [3, 9]: 20%; Plant response rating, Blackgrass ([4]; 125 g ai/ha): 0; pest or weed control at 62 g/ha [4, 10]: 0%; pest or weed control at 62 g/ha ([5]; 62 g ai/ha): 30%; plant injury at 62 g/ha ([6]; 62 g ai/ha): 0%; Plant response rating (scale of 0 to 100), Canarygrass ([7]; 31 g ai/ha): 10; Plant response rating, Canarygrass ([7]; 125 g ai/ha): 10; pest or weed control at 62 g/ha [7, 11]: 10%; Plant response rating (scale of 0 to 100), Ryegrass, Italian ([8]; 31 g ai/ha): 35; pest or weed control at 62 g/ha ([8]; 62 g ai/ha): 35% |
